Source: article PMC11117716 (Biomolecules, 2024)

Columns and labels:
[1] = Plasma pharmacokinetics after oral Posiphen in CD-1 mice (LC-MS/MS); conditions: for Mean plasma concentration: CD-1 mice, Posiphen 65 mg/kg
Method: (§1) The animal PKs were taken from multiple GLP toxicology studies, biomarker studies, and efficacy studies. […] Sample size (n) represents the number of animals at each time point of sample collection. […] The dose volume was determined according to animals’ weight collected on the dosing day.
(§2) In mice, blood samples were collected via the saphenous vein or other suitable blood collection site into a microcentrifuge tube containing the anti-coagulant K2-EDTA on wet ice and processed for plasma. For samples collected within the first hour of dosing, ±1 min is acceptable, while for all other timepoints, samples were taken within 5% of the scheduled time and are not considered as protocol deviations. Plasma samples were centrifuged (3200× g for 10 min at 4 °C) within an hour of collection. CSF samples were collected with 3 μL volume per time point, frozen on dry ice, and stored at −60 °C for further analysis. For brain collection in mice, animals were euthanized using CO2 inhalation. Whole brain was collected, washed in cold saline, dried, and homogenized immediately […]. Homogenizing buffer MeOH/15 mM PBS (1:2, v:v) was used at a ratio of 1:9 (1 g of tissue with 9 mL of buffer; the dilution ratio is 10).
(§3) In humans, the bioanalytical method was performed in accordance with current FDA, Industry Guidelines, and OECD Principles. […] The sample analysis was conducted in accordance with current GCP and GLP principles, and the results were presented for pharmacokinetic profiling (Absorption Systems, Exton, PA, USA). Calibration ranges for each analyte ranged from 1000 ng/mL to 1 ng/mL (or ng/g for brain) in plasma, brain, and CSF matrices. The detection limit was 0.025 ng/mL. The following PK parameters were collected for the purpose of this manuscript: maximum concentration (Cmax), time to maximum drug concentration (Tmax), half-life (T1/2), and the Area Under the Curve (AUC).
Blood plasma samples were collected at various time points within the initial 8 h following administration (6 h for humans). Plasma concentrations (ng/mL) were measured over the 8 h observation window to characterize the maximum concentration (Cmax), the time to peak drug concentration (Tmax), the half-life (T1/2), and the Area Under the Curve (AUC).

[2] = human; side effects nausea and vomiting; cited from earlier work
[3] = Plasma pharmacokinetics after oral Posiphen in Sprague Dawley rats (LC-MS/MS); type: in vivo, rat
Method: In rats and dogs, blood samples were centrifuged, and the resultant plasma was separated, and 200 µL (rat) or 400 µL (dog) of plasma was transferred to uniquely labeled pre-chilled polypropylene tubes containing 5 µL (rat) or 10 µL (dog) Dichlorvos spiking solution (nominal concentration of 0.82 mg/mL in MeOH/Water, 20/80, v/v).
The detection limit was 0.025 ng/mL.

[4] = tested on: acetylcholinesterase; conditions: cited from earlier work
[5] = clinical; conditions: human, in vivo
Method: This paper describes data from multiple studies. The healthy volunteers’ data come from the single ascending and multiple ascending dose study, whereas Alzheimer’s and Parkinson’s patients are represented by the MCI NCT01072812 study, ADCS NCT02925650 study, and AD/PD NCT04524351 study. The evaluations are based on a sample size of n = 4 for each time point.
In humans, plasma and lumbar CSF samples were collected via an indwelling catheter over 12 h (at 0, 1, 1.5, 2, 3, 4, 6, 8, and 12 h) initiated at the same time of day, 1 day prior to the start of dosing, to obtain time-dependent baseline control data, and then at the exact same times immediately after the last dose was administered. Samples were frozen and then stored at −80 °C.
as §3

[6] = tested on: neurotoxic aggregating proteins; conditions: cited from earlier work
[7] = in vivo; conditions: CD-1, mouse; for T1/2 / Tmax / Tmax (time of Cmax) / Cmax: po; for Cmax: 65 mg/kg
Method: as §1, §2, §3

[8] = both, CD-1, mouse, in vivo, po, 65 mg/kg
[9] = both sexes, Sprague Dawley, rat, in vivo, 40 mg/kg
[10] = both sexes, Sprague Dawley, rat, in vivo, po, 40 mg/kg

CN1CC[C@]2(C)c3cc(OC(=O)Nc4ccccc4)ccc3N(C)C12.O=C(O)C(O)C(O)C(=O)O (stereo partly drawn) [Posiphen, (3aR)-1,3a, 8-trimethyl-1,2,3,3a, 8,8a-hexahydropyrrolo (2,3-b) indol-5-yl phenylcarbamate tartrate]
Mean plasma concentration ([1]; 0.25 h): 937 ng/mL | Mean plasma concentration ([1]; 0.5 h): 939 ng/mL | Mean plasma concentration ([1]; 1 h): 610 ng/mL | Mean plasma concentration ([1]; 2 h): 571 ng/mL | Mean plasma concentration ([1]; 4 h): 19.5 ng/mL | AUC(0-t) ([1]; Table 2, mouse plasma, oral Posiphen): 1707 ng·h/mL | AUC(0-t) [1, 8]: 1710 ng·h/mL | Cmax [1, 8]: 939 ng/mL | half-life ([1]; both, CD-1, mouse, in vivo, po, 65 mg/kg, T1/2, mouse plasma, Posiphen PO 65 mg/kg, n = 7): 0.56 h | Tmax ([1]; both, CD-1, mouse, in vivo, po, 65 mg/kg, Tmax, mouse plasma, Posiphen PO 65 mg/kg, n = 7): < 1 h | T1/2 ([1]; mouse plasma, Posiphen PO 65 mg/kg, n = 7, 65 mg/kg): 0.562 h | Maximum tolerated dose [2]: 160 mg | concentration at 0.25 h [3, 9]: 1090 ng/mL | concentration at 1 h [3, 9]: 771 ng/mL | concentration at 2 h [3, 9]: 381 ng/mL | concentration at 4 h [3, 9]: 243 ng/mL | concentration at 8 h [3, 9]: 234 ng/mL | Cmax [3, 10]: 1180 ng/mL | half-life [3, 10]: 1.03 h | Tmax ([3]; both sexes, Sprague Dawley, rat, in vivo, po, 40 mg/kg, rat plasma, Posiphen PO 40 mg/kg, n = 6): < 1 h | AUC(0-t) ([3]; both sexes, Sprague Dawley, rat, in vivo, po, 40 mg/kg, read-out: AUC (0–8 h)): 1140 ng·h/mL | Primary compound in plasma ([3]; rat plasma): primary compound | Acetylcholinesterase inhibitory (AChEI) activity [4]: no acetylcholinesterase inhibitory (AChEI) activity | Kp [5]: 0.02 | half-life [5]: > 12 h | AUC(0-t) ([5]; po): 20.7 ng·h/mL | Cmax ([5]; po): 2.23 ng/mL | T1/2 ([5]; po): 3 h | Tmax ([5]; po): 17.26 h | Tmax (time of Cmax) ([5]; po): 3 h | TINAP activity [6]: have TINAP | Kp [7]: 5.04 | Kp ([7]; in vivo): 0.17 | T1/2 ([7]; in vivo): 0.5 h | Tmax ([7]; in vivo): 2.32 h | Tmax (time of Cmax) ([7]; in vivo): 0.5 h | Cmax ([7]; in vivo, Cmax): 163 ng/mL | T1/2 [7]: 0.5 h | Tmax [7]: 0.74 h | Tmax (time of Cmax) [7]: 0.5 h | Cmax [7]: 4740 ng/mL
